Results: ChEMBL document CHEMBL3044861, “Synthesis and Herbicidal Activity of New 2-(1-Carbamoyl-1, 2, 4-triazol-3-ylsulfonyl) alkanoates” (J Pestic Sci, 2002)

What was measured:
Zea mays = test: Herbicidal activity against Zea mays (maize)assessed as killing at 500 g/ha pre-emergence application upland paddy conditions measured after 14 days; assay type: functional
[1] = system: Schoenoplectiella juncoides; test: Herbicidal activity against Schoenoplectiella juncoides assessed as killing at 50 g/ha pre-emergence application under paddy conditions; assay type: functional
Chenopodium album = test: Herbicidal activity against Chenopodium album assessed as killing at 500 g/ha pre-emergence application upland paddy conditions measured after 14 days; assay type: functional
Digitaria ciliaris = test: Herbicidal activity against Digitaria ciliaris assessed as killing at 500 g/ha pre-emergence application upland paddy conditions measured after 14 days; assay type: functional
Echinochloa crus-galli = test: Herbicidal activity against Echinochloa crus-galli (barnyard grass) assessed as killing at 500 g/ha pre-emergence application upland paddy conditions measured after 14 days; assay type: functional
[2] = Herbicidal activity against broadleaf weed assessed as killing at 50 g/ha pre-emergence application under paddy conditions; assay type: functional
[3] = Octanol-water partition coefficient, log K of the compound; assay type: physicochemical; details: read-out: log K
Echinochloa oryzicola [4] = test: Herbicidal activity against Echinochloa oryzicola assessed as killing at 50 g/ha pre-emergence application under paddy conditions; assay type: functional
Oryza sativa = test: Toxicity in Oryza sativa (rice) assessed as injury at 50 g/ha pre-emergence application under paddy conditions by crop safety assay; assay type: organism-based; details: in vivo, other
Pontederia vaginalis = test: Herbicidal activity against Monochoria vaginalis assessed as killing at 50 g/ha pre-emergence application under paddy conditions; assay type: functional
Echinochloa oryzicola [5] = test: Herbicidal activity against Echinochloa oryzicola assessed as killing pre-emergence application under paddy conditions; assay type: functional

Compound | Activity (Zea mays) [%] | Activity [1] [%] | Activity (Chenopodium album) [%] | Activity (Digitaria ciliaris) [%] | Activity (Echinochloa crus-galli) [%] | Activity [2] [%] | logP [3] | Activity (Echinochloa oryzicola [4]) [%] | Activity (Oryza sativa) [%] | Activity (Pontederia vaginalis) [%] | log(1/ED80) (Echinochloa oryzicola [5])
CCN(CC)C(=O)n1cnc(S(=O)(=O)C(C(=O)OC)C2CC2)n1 (stereo unspecified) | 20 | 10 | 80 | 100 | 90 | 10 | 0.47 | 10 | 10 | 10 | 0.24
C=CC(C)C(C(=O)OC)S(=O)(=O)c1ncn(C(=O)N(CC)CC)n1 (stereo unspecified) | 70 | 10 | 90 | 90 | 90 | 10 | 0.63 | 60 | 10 | 10 | 0.65
CCN(CC)C(=O)n1cnc(S(=O)(=O)C(C)C(=O)OC)n1 (stereo unspecified) | 20 | 10 | 60 | 80 | 60 | 10 | 0.41 | 10 | 10 | 10 | -0.1
CCC(C)C(C(=O)OC)S(=O)(=O)c1ncn(C(=O)N(CC)CC)n1 (stereo unspecified) | 40 | 90 | 100 | 100 | 90 | 80 | 0.66 | 100 | 10 | 60 | 0.95
CCN(CC)C(=O)n1cnc(S(=O)(=O)C(CC2CC2)C(=O)OC)n1 (stereo unspecified) | 60 | 60 | 100 | 90 | 90 | 90 | 0.6 | 100 | 10 | 100 | 0.95
CCN(CC)C(=O)n1cnc(S(=O)(=O)C(C(=O)OC)C(C)C)n1 (stereo unspecified) | 30 | 100 | 90 | 90 | 80 | 90 | 0.56 | 100 | 40 | 100 | 1.24
CC(C)CC(C(=O)OC(C)C)S(=O)(=O)c1ncn(C(=O)N2CCOCC2)n1 (stereo unspecified) | – | 10 | – | – | – | 10 | – | 10 | – | 10 | –
CC(C)CC(C(=O)OC(C)C)S(=O)(=O)c1ncn(C(=O)N2CCCC2)n1 (stereo unspecified) | – | 10 | – | – | – | 30 | – | 40 | 10 | 10 | –
CC(C)CC(C(=O)OC(C)C)S(=O)(=O)c1ncn(C(=O)N(C)C)n1 (stereo unspecified) | – | 10 | – | – | – | 40 | – | 60 | – | 10 | –
CC(C)CC(C(=O)OC(C)C)S(=O)(=O)c1ncn(C(=O)N(C)C2CCCCC2)n1 (stereo unspecified) | – | 10 | – | – | – | 50 | – | 30 | – | 10 | –
CCN(CC)C(=O)n1cnc(S(=O)(=O)CCC(C)C)n1 | – | 10 | – | – | – | 50 | – | 100 | 10 | 10 | –
CCN(CC)C(=O)C(CC(C)C)S(=O)(=O)c1ncn(C(=O)N(CC)CC)n1 (stereo unspecified) | – | 10 | – | – | – | 10 | – | 10 | 20 | 10 | –
CC(C)CC(C(=O)OC(C)C)S(=O)(=O)c1ncn(C(=O)N(C)c2ccccc2)n1 (stereo unspecified) | – | 10 | – | – | – | 40 | – | 20 | – | 10 | –
CC(C)CC(C(=O)OC(C)C)S(=O)(=O)c1ncn(C(=O)N(C(C)C)C(C)C)n1 (stereo unspecified) | – | 30 | – | – | – | 60 | – | 60 | – | 10 | –
